Assays:
[1] = system: HT-29 cells; assay: MTT assay on HT-29 human colon carcinoma cell line; assay type: cell-based; conditions: MTT assay after 5 days, read-out: IC90 HT29
Protocol: To show the activity of the compounds according to this invention, their effects on a human colon carcinoma cell line was evaluated using a standard MTT-assay. MTT (3-(4,5-dimethylthiazol-2-yl)-2,5-diphenyl tetrazolium bromide) is widely used for the quantitative determination of cytotoxic effects or in vitro chemosensitivity of tumor cells. The assay is based on the cleavage of the yellow tetrazolium salt (MTT) to purple formazan crystals by metabolic active cells. For details, see Rubinstein, L. V., et al., J. Natl. Cancer Inst. 82 (1990) 1113-1118.
We proceeded as follows: HT-29 cells (human colon carcinoma cell line, ATCC-No. HTB-38) were cultivated in RPMI 1640 medium with GlutaMAX™ I (Invitrogen, Cat-No. 61870-010), 2.5% fetal calf serum (FCS, Sigma Cat-No. F4135 (FBS)), 2 mM glutamine, 100 units/ml penicillin, 100 μg/ml streptomycin (=Pen/Strep from Invitrogen Cat. No. 15140). For the assay the cells were seeded in 384 well plates, 900 cells per well, in the same medium. At the next day, the compounds (dissolved 10 mM in DMSO) were added in various concentrations ranging from 30 μM to 1.5 nM. After 5 days, the MTT assay was done mainly according to the instructions of the manufacturer (Cell proliferation kit I, MTT, from Roche Molecular Biochemicals). In brief: MTT labeling reagent was added to a final concentration of 0.5 mg/ml, added and incubated for 4 hrs at 37° C., 5% CO2. During this incubation time purple formazan crystals are formed. After addition of the solubilization solution (20% Sodium Dodecyl Sulfate (SDS) in 0.02 M HCl) the plates were incubated overnight at 37° C., 5% CO2. After careful mixing, the plates were measured in Victor 2 (scanning multiwell spectrophotometer, Wallac) at 550 nm.
A decrease in number of living cells results in a decrease in the total metabolic activity in the sample. The decrease directly correlates to the amount of purple colour resulting from the solubilization of the purple formazan crystals. Determination of IC90 was done using XL-fit (XLfit software (ID Business Solution Ltd., Guilford, Surrey, UK)).

[2] = molecular target: T1, recombinant HDAC-1 (Homo sapiens, UniProt Q13547); assay: HDAC biochemical quench assay; conditions: recombinant HDAC-1 purified from HEK 293 cells; 1 μM peptide substrate, 90 min at room temperature
T1 construct: made in house; host or cells: HEK 293 cells (ATCC-No. CRL 1573)
T1 sequence (Q13547 whole entry, species assumed): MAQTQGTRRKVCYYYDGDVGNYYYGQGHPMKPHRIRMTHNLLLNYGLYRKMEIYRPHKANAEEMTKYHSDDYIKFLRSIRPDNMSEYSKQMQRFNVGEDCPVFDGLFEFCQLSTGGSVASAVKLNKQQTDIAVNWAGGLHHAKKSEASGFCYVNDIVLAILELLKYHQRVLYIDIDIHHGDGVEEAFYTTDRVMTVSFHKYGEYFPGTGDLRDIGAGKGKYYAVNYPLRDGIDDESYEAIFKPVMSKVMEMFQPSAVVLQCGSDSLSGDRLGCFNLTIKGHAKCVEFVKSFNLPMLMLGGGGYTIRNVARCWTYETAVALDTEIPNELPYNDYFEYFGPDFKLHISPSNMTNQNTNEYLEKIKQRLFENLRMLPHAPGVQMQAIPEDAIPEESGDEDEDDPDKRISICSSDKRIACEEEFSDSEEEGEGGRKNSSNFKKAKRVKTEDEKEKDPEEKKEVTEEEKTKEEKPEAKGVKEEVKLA
Source text: The function of histone deacetylase (HDAC) is the deacetylation of lysines in e.g. histone H4. A peptide of 17 amino acids derived from histone H4 was labeled with tetramethylrhodamine (TAMRA, fluorophore, Invitrogen) at the C-terminus and QSY-7™ (quencher dye, Invitrogen) at the N-terminus and was used as a substrate (TAMRA—first 17 aa of histone H4—QSY7). Following deacetylation by HDAC, the enzyme Lys C is able to cleave the peptide after lysine. […] Inhibition of HDAC by compounds results in low signals because Lys C could not cleave the substrate and the quench effect persists.
For dose response curves, 10 concentrations were diluted 1:3 starting at 30 μM. 10 μl compound dilution were put into each well of a 384 well plate. 10 μl HDAC were added (recombinant HDAC-1 purified from HEK 293 cells (human embryonic kidney cell line transformed by Adenovirus 5 fragments, ATCC-No. CRL 1573); enzyme activity has to be assessed for each preparation). 10 μl peptide substrate was added (1 μM final concentration, derived from 1 mM stock solution diluted 1:1000 in test buffer). After 90 min incubation at room temperature, the reaction was stopped by addition of 20 μl test buffer including 3 μg/ml Lys C and 0.075% Sodium Dodecyl Sulfate (SDS). After overnight incubation the fluorescence signal of TAMRA was measured (Victor 2 from Wallac, absorption 544 nm, emission 590 nm). […]

SMILES | IC90 [1] | IC50 [2]
CC(NC(=O)c1ccc(C(=O)NO)s1)c1ccc(SC(F)(F)F)cc1 (centres unmarked) [Example 1, Thiophene-2,5-dicarboxylic acid 2-hydroxyamide 5-{[1-(4-trifluoromethylsulfanyl-phenyl)-ethyl]-amide}] | 340 nM | –
CC(NC(=O)c1ccc(C(=O)NO)s1)c1cccc(OC(F)(F)F)c1 (centres unmarked) [Example 3, Thiophene-2,5-dicarboxylic acid 2-hydroxyamide 5-{[1-(3-trifluoromethoxy-phenyl)-ethyl]-amide}] | 220 nM | –

The remaining lines, values ahead:

IC90 [1] | IC50 [2] | SMILES
– | 3.11 nM | CC(NC(=O)c1ccc(C(=O)NO)s1)c1ccc(OC(F)(F)F)cc1 (centres unmarked) [Example 2-1, Thiophene-2,5-dicarboxylic acid 2-hydroxyamide 5-{[1-(4-trifluoromethoxy-phenyl)-ethyl]-amide}]
210 nM | – | CC(NC(=O)c1ccc(C(=O)NO)s1)c1cccc(SC(F)(F)F)c1 (centres unmarked) [Example 2-2, Thiophene-2,5-dicarboxylic acid 2-hydroxyamide 5-{[1-(3-trifluoromethylsulfanyl-phenyl)-ethyl]-amide}]
– | 2.26 nM | CSc1ccc(C(C)NC(=O)c2ccc(C(=O)NO)s2)cc1 (centres unmarked) [Example 2-3, Thiophene-2,5-dicarboxylic acid 2-hydroxyamide 5-{[1-(4-methylsulfanyl-phenyl)-ethyl]-amide}]

Source: patent US7638553B2, “Hydroxamates, their manufacture and use as pharmaceutical agents” (Hoffmann-La Roche Inc., priority 2004, dated 2009)
